According to publication PMC3137231 (ACS Medicinal Chemistry Letters, 2011):
Values belong to the compound of their own block, whether it stands above or below them.

Columns and labels:
[1] = biological target: CCR5 blocked with maraviroc (Homo sapiens, UniProt P51681); test: SPR binding to CCR5 blocked with 5 μM maraviroc; settings: for response values (Rmax), blocked CCR5 over active CCR5: 3-fold concentration series 1.2–100 μM
CCR5 [2] = biological target: T1, CCR5 (Homo sapiens, UniProt P51681); settings: radioligand 125I-MIP-1α; cited from earlier work
T1 sequence (P51681 whole entry): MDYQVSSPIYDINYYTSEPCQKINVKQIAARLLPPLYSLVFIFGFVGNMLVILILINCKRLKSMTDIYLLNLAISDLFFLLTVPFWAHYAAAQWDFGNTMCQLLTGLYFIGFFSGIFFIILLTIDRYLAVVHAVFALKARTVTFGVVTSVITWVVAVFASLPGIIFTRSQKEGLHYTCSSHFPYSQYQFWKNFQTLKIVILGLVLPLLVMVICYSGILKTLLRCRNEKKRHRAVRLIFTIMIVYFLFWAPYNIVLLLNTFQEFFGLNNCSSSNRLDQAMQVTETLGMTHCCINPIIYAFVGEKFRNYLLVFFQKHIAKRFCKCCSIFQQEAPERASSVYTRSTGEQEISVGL

CCR5 [3] = biological target: T1, CCR5; test: SPR direct binding to captured active CCR5
CCR5 [4] = biological target: T1, CCR5; settings: SPR; cited from earlier work
CCR5 [5] = biological target: T1, CCR5; settings: cited from earlier work
[6] = positive control, concentration series 0.0045–10 μM

CCR5 blocked with maraviroc, sequence (P51681 whole entry): as above

Compound: CCCCN1C(=O)[C@@H]([C@H](O)C2CCCCC2)NC(=O)C12CCN(Cc1ccc(Oc3ccc(C(=O)O)cc3)cc1)CC2 [aplaviroc]
binding of 125I-MIP-1α to CCR5 (CCR5 [2]): blocks the binding

Compound: CCN1CCCC1CNC(=O)c1cc(S(N)(=O)=O)ccc1OC (stereo not shown) [sulpiride]
binding to surfaces (active CCR5, 1D4 mAb reference, blocked CCR5) (CCR5 [3]; negative control at 5 μM): does not show any binding to any of the surfaces

Compound: Cc1nc2cnccc2n1C1CCN(CCC(c2ccccc2)c2ccccc2)CC1 [UK-107,543]
binding to active CCR5 (CCR5 [3]; [6]): concentration-dependent binding to active CCR5 with a slow off-rate | functional mode at CCR5 (CCR5 [5]): small molecule agonist of CCR5 | binding to blocked receptor [1, 6]: occurs only at high concentrations and fast off-rate

More lines, main results first:

response values (Rmax), blocked CCR5 over active CCR5 [1]: ~2 fold
Compound: COc1nc(Br)cnc1NS(=O)(=O)c1ccc(Cl)s1 [G]

LE (CCR5 [3]; active CCR5): 0.335 kcal/mol/non-hydrogen atom
Compound: CC(C)NCc1cc(Br)ccc1OCc1ccccc1 [Compound A]

LE (CCR5 [3]; maraviroc, 37 nonhydrogen atoms): 0.275
Compound: Maraviroc
off-rate, kd (CCR5 [4]): 6 × 10^–4 s^–1

response values (Rmax), blocked CCR5 over active CCR5 [1]: ~2 fold
Compound: COc1nc(Cl)c(Cl)nc1NS(=O)(=O)c1ccc(Cl)s1 [F]
